# Peptide text beside a SMILES is read from it.
# Experiment: The concentration of compound required to prevent 50 percent of cells from adhering to MAdCAM-1
row,Structure (SMILES),IC50 [µM]
1,CC(=O)N[C@@H](CC(C)C)C(=O)NCC(CC(=O)O)S(=O)(=O)N[C@H](C(N)=O)[C@@H](C)O (stereo partly drawn) [4-((S)-2-Acetylamino-4-methyl-pentanoylamino)-3-((S)-1-carbamoyl-2-(R)-hydroxy-propylsulfamoyl)-butyric acid],> 500
2,CC(=O)N[C@@H](CC(C)C)C(=O)N[C@@H](CC(=O)O)C(=O)N[C@H](C(N)=O)C(C)C [(S)-3-((S)-2-Acetylamino-4-methyl-pentanoylamino)-N-((S)-1-carbamoyl-2-methyl-propyl)-succinamic acid] (Ac-Leu-Asp-Val-NH2),126
3,CC(=O)N[C@@H](CC(C)C)C(=O)NCC(CC(=O)O)S(=O)(=O)N[C@H](C(N)=O)C(C)C (stereo partly drawn) [4-((S)-2-Acetylamino-4-methyl-pentanoylamino)-3-((S)-1-carbamoyl-2-methyl-propylsulfamoyl)-butyric acid],219
4,"CC(=O)N[C@@H](CC(C)C)C(=O)N[C@@H](CC(=O)O)C(=O)N[C@H](C(N)=O)[C@@H](C)O [(S)-3-((S)-2-Acetylamino-4-methyl-pentanoylamino)-N-((1S,2R)-1-carbamoyl-2-hydroxy-propyl)-succinamic acid] (Ac-Leu-Asp-Thr-NH2)",276

# — BindingDB's records for doi:10.1016/S0960-894X(97)00090-5 (1997)
